Results reported in patent US4276298A, “2-Aryl-1,2-benzisothiazolinone-1,1-dioxides and their use as selective protease inhibitors” (Merck & Co., Inc., priority 1979, dated 1981).
Like-named read-outs stand apart in the source and are kept apart here.

Experiments:
Human PMN Elastase = target: T1, Human PMN Elastase (Homo sapiens, UniProt P08246); test: Human PMN elastase inhibition (Boc-AAPAN hydrolysis, 410 mμ); format: biochemical; conditions: 0.2 mM Boc-AAPAN, pH 7.5, crude human PMN extract; read-out: ID50 Human PMN Elastase (converted)
T1 construct: Crude extract of human polymorphonuclear leukocytes (PMN) containing elastase activity; from tissue; host or cells: human polymorphonuclear leukocytes (crude extract)
T1 sequence (P08246 30-267): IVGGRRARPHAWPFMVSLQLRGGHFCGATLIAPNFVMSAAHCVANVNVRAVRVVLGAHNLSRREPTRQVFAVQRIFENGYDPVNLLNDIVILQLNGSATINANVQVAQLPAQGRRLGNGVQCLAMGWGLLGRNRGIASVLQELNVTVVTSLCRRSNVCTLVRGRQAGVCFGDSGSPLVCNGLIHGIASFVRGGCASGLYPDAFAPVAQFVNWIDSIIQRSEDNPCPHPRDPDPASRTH
Description: N-tris (hydroxymethyl) methyl-2-aminoethane sulfonic acid
0.2 mM N-t-Box-Alanyl-Alanyl-Prolyl-Alanine-p-nitroanilide=Boc-AAPAN
To prepare substrate, the solid (m.w. 550) was first dissolved in 10.0 ml. DMSO. Buffer at pH 7.5 was then added to a final volume of 100 ml.
Crude extract of human polymorphonuclear leukocytes (PMN) containing elastase activity.
(§1) Inhibitors to be tested dissolved in DMSO just before use.
To 1.0 ml. of 0.2 mM Box-AAPAN in a cuvette, 0.01-0.1 ml. of DMSO with or without inhibitor was added. After mixing, a measurement was taken at 410 mμ to detect any spontaneous hydrolysis due to presence of test compound. 0.05 ml. of PMN extract was then added and the ΔOD/min at 410 mμ was measured and recorded. A Gilford 240 or Beckman DB-G spectrophotomer was used.
Results were obtained as % inhibition produced by test compound as represented by the % decrease in ΔOD/min. of a control. The ID50 was then derived from the % inhibition curve.
The elastase activity in the crude PMN extract may vary from one preparation to another. A control of each new batch is run and the volume added in the assay procedure is adjusted according to activity.

Trypsin = target: T2, Trypsin (Bos taurus, UniProt P00760); test: Trypsin inhibition (BAPA hydrolysis, 410 mμ); format: biochemical, bovine
T2 construct: purchased Worthington TRL
T2 sequence (P00760 24-246): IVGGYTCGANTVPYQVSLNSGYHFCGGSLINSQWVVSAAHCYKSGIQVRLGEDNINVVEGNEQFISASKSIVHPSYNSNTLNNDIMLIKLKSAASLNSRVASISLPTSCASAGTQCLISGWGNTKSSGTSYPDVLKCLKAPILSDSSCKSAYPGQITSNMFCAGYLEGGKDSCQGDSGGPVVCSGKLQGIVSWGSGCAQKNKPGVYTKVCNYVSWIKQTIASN
Description: Trypsin (Worthington-TRL, 2X crystallized, lyophilized) at 1.0 mg/ml by wt. in 0.001 M HCl.
1.0 mN N-Benzoyl-DL-Arginine-p-nitroanilide (Bachem)=BAPA. The substrate was prepared by dissolving solid (M.W. 435) in 10 ml. DMSO. Buffer, at pH 7.5, was added to a total volume of 100 ml.
Inhibitors dissolved in DMSO just before use.
To 1.0 ml of 1.0 mM BAPA in a cuvette, 0.01-0.05 ml of DMSO with or without inhibitor was added. After mixing, a measurement was taken at 410 mμ to detect any spontaneous hydrolysis due to the presence of test compound. 0.01 ml of trypsin solution was then added and the ΔOD/min at 410 mμ was measured and recorded. A Gilford 240 spectrophotometer was used.

[1] = target: T3, Porcine Pancreatic Elastase (Sus scrofa, UniProt P00772); test: Porcine pancreatic elastase inhibition (Boc-AAPAN hydrolysis, 410 mμ); format: biochemical; conditions: 0.2 mM Boc-AAPAN, pH 7.5, purified PPE; read-out: ID50 Porcine Pancreatic Elastase (converted)
T3 construct: purchased Worthington
Description: PORCINE PANCREATIC ELASTASE:
Solution of purified porcine pancreatic elastase (PPE) (Worthington)
To 1.0 ml. of 0.2 mM Box-AAPAN in a cuvette, 0.01-0.1 ml. of DMSO with or without inhibitor was added. After mixing, a measurement was taken at 410 mμ to detect any spontaneous hydrolysis due to presence of test compound. 0.05 ml. of PPE extract was then added and the ΔOD/min at 410 m° was measured and recorded. A Gilford 240 or Beckman DB-G spectrophotometer was used.
The elastase activity in the crude PPE extract may vary from one preparation to another. A control of each new batch is run, and the volume added in the assay procedure is adjusted according to activity.

Chymotrypsin = target: T4, Chymotrypsin (Bos taurus, UniProt P00766); test: Chymotrypsin inhibition (Ac-AAPPhN hydrolysis, 410 mμ); format: biochemical, bovine
T4 construct: purchased Worthington
Description: a-Chymotrypsin (Worthington, 3X crystallized, lyophilized) at 100 μg/ml in 0.001 M HCl (1 mg/ml by wt. diluted 1:10)
0.2 mM N-Acetyl-Alanyl-Alanyl-Prolyl-Phenylalanyl-p-nitroanilide=Ac-AAPPhN.To prepare substrate, the solid (M.W. 566) was first dissolved in 10.0 ml DMSO. Buffer at pH 7.5 was then added to a final volume of 100 ml.
as §1
To 1.0 ml of 0.2 mM Ac-AAPPhN in a cuvette, 0.01-0.05 ml of DMSO with or without inhibitor was added. After mixing, a measurement was taken at 410 mμ to detect any spontaneous hydrolysis due to the presence of test compound. 0.01 ml of α-chymotrypsin solution was then added and the ΔOD/min at […] was measured and recordeed. A Gilford 240 240 spectrophotometer was used.
Results were obtained as % inhibition produced by test compound as represented by the % decrease in ΔOD/min of a control. The ID50 was then derived from the % inhibition curve.

Human PMN Cathepsin G = target: T5, Human PMN Cathepsin G (Homo sapiens, UniProt P08311); test: Human PMN cathepsin G inhibition (BTNP hydrolysis, 347.5 mμ); format: biochemical; conditions: 0.2 mM BTNP, pH 6.5, purified human PMN extract; read-out: ID50 Human PMN Cathepsin G (converted)
T5 construct: Purified extract of human polymorphonuclear leukocytes (PMN) containing chymotrypsin-like activity; from tissue; host or cells: human polymorphonuclear leukocytes (purified extract)
T5 sequence (P08311 21-255): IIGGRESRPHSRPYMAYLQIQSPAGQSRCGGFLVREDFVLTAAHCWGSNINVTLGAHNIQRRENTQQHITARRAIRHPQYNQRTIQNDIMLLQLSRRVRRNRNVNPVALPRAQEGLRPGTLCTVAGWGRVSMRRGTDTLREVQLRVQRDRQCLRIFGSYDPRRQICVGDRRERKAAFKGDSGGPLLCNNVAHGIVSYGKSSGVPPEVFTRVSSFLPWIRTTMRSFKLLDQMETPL
Description: 0.05 M PIPES buffer [piperazine-N,N'-bis(2-ethanesulfonic acid), mono-sodium salt, monohydrate], pH 6.5.
0.2 mM t-Box-L-Tyrosine-p-Nitrophenyl ester=BTNP
Purified extract of human polymorphonuclear leukocytes (PMN) containing chymotrypsin-like activity.
To 1.0 ml of 0.2 mM BTNP in a cuvette, 0.01-0.1 ml of DMSO with or without inhibitor was added. After mixing, a measurement was taken at 347.5 mμ to detect any spontaneous hydrolysis due to the presence of test compound. 0.01 ml of PMN extract was then added and the ΔOD/min at 347.5 mμ was measured and recorded. A Gilford 240 or Beckman DB-G spectrophotometer was used.
To prepare substrate, 8.0 mg of solid (m.w. 402) was first dissolved in 10.0 ml DMSO. Buffer at pH 6.5 was then added to a final volume of 100 ml. Final DMSO concentration was 10%. Substrate prepared in this manner is stable for 3-4 hours at room temperature.
All activites were tested for reactivity with nitrophenol. The test is invalid if the test compound reacts with nitrophenol.

papain = conditions: cited from earlier work
[2] = tested on: trypsin, chymotrypsin, plasmin, kallikrein, elastase, and thrombin; conditions: glycoprotein in human serum; cited from earlier work
Papain induced emphysema = conditions: hamster; cited from earlier work
[3] = 1.0 mM BAPA, pH 7.5, read-out: ID50 Trypsin (converted)
[4] = 0.2 mM Ac-AAPPhN, pH 7.5, α-chymotrypsin, read-out: ID50 Chymotrypsin (converted)

T3 sequence (P00772 27-266): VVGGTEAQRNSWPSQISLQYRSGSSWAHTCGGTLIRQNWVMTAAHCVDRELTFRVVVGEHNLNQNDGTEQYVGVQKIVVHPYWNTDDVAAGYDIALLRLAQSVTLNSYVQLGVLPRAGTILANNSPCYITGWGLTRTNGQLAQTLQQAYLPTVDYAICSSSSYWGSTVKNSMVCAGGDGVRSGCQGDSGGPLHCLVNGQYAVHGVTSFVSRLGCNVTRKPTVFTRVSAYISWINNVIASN

Molecule | IC50 (Human PMN Elastase) | IC50 (Trypsin; [3]) | IC50 [1] | IC50 (Chymotrypsin; [4]) | IC50 (Trypsin) | IC50 (Human PMN Cathepsin G) | IC50 (Chymotrypsin) | inhibition of papain (papain) | inhibitory spectrum [2] | inhibition of papain induced emphysema (Papain induced emphysema)
CCC(CC)C(=O)N1C(=O)c2ccccc2S1(=O)=O [reference compound] | 0.355 µM | 3.55 µM | 1.07 µM | 0.142 µM | – | – | – | – | – | –
N#Cc1cc([N+](=O)[O-])ccc1N1C(=O)c2ccccc2S1(=O)=O | 3.04 µM | – | 60.7 µM | 0.607 µM | 60.7 µM | 45.6 µM | – | – | – | –
O=C1c2ccccc2S(=O)(=O)N1c1ncccc1[N+](=O)[O-] | 1.64 µM | 65.5 µM | 65.5 µM | 0.655 µM | – | – | – | – | – | –
O=C(c1cccs1)N1C(=O)c2ccccc2S1(=O)=O [reference compound] | 0.341 µM | 0.0682 µM | 0.682 µM | – | – | – | 0.682 µM | – | – | –
N#Cc1ccc(N2C(=O)c3ccccc3S2(=O)=O)c(C#N)c1 | 4.85 µM | 162 µM | 162 µM | 3.23 µM | – | 162 µM | – | – | – | –
O=C1c2ccccc2S(=O)(=O)N1c1c(F)c(F)c(F)c(F)c1F | 2.86 µM | – | 143 µM | – | 143 µM | – | 143 µM | – | – | –
N#Cc1ccc(N2C(=O)c3ccccc3S2(=O)=O)nc1 | 10.5 µM | – | – | 59.6 µM | – | – | – | – | – | –
O=C1c2ccccc2S(=O)(=O)N1c1ccc([N+](=O)[O-])cc1 [reference compound] | 164 µM | – | 329 µM | – | 329 µM | – | 329 µM | – | – | –
O=C1c2ccccc2S(=O)(=O)N1c1ccc([N+](=O)[O-])cc1[N+](=O)[O-] | 2.86 µM | – | 143 µM | – | 143 µM | – | 1.43 µM | – | – | –
α1 -Antitrypsin: a glycoprotein in human serum | – | – | – | – | – | – | – | not inhibited | wide inhibitory spectrum | inhibited
O=C(c1ccco1)N1C(=O)c2ccccc2S1(=O)=O [reference compound] | 0.361 µM | 1.8 µM | 0.721 µM | 0.0721 µM | – | – | – | – | – | –
C=CC(=O)N1C(=O)c2ccccc2S1(=O)=O [reference compound] | 0.422 µM | 1.69 µM | 0.843 µM | 0.295 µM | – | 4.22 µM | – | – | – | –
